Measurements taken from US11040954B1, “CXCR3 receptor agonists” (RECEPTOS LLC, priority 2016, dated 2021).

Target: T1, CXCR3 (Homo sapiens, UniProt P49682)
T1 construct: host or cells: CHO-K1 (cAMP Hunter CHOK1 CXCR3 Gi cell line)
T1 sequence (P49682 1-368): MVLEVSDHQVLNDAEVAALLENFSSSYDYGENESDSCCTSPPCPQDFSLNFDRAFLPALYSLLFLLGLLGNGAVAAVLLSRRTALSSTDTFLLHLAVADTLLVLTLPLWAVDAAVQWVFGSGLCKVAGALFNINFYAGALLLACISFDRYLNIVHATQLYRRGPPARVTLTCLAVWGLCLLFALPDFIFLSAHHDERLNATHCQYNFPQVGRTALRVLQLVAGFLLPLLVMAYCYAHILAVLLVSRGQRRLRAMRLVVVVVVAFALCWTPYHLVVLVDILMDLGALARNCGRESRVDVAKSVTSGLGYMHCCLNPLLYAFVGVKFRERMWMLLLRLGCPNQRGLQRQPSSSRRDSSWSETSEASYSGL
Assay: CXCR3 cAMP agonist assay (cAMP Hunter CHOK1 CXCR3 Gi cell line, forskolin-stimulated, HitHunter cAMP detection)
Type: cell-based
Details: cAMP Hunter CHOK1 CXCR3 Gi cells, 20 μM forskolin, 30 minutes; read-out: Activity (CXCR3 cAMP agonist assay compound EC50)
Experimental: The cAMP Hunter™ CHOK1 CXCR3 Gi cell line was purchased from DiscoveRx. Cells were seeded into a 96-well white assay plate at 50,000 cells/well/94 μl assay buffer (Hank's Buffered Saline Solution, 10 mM HEPES, 0.1% fatty acid-free BSA, pH 7.4) and immediately assayed in suspension. Forskolin was added to 20 μM (5 μl of 400 μM stock) simultaneously with a 12-point dose response curve of compound at 0-10 μM (1 μl of 100× stock in 100% DMSO), and cells were incubated for 30 minutes. A cAMP standard curve is run as an assay control. A CXCL11 dose response was included to determine maximum efficacy. Direct detection of cAMP was carried out using the DiscoveRx HitHunter cAMP kit according to manufacturer's instructions, and luminescence was read using a SpectraMax M5 plate reader.

Row | Compound | EC50 [nM]
1 | Cc1cc(NC(=O)[C@H](CCCCN)NC(=O)[C@@H]2Cc3ccccc3CN2C(=O)CCC(=O)c2cccc(C(F)(F)F)c2)ccc1Cl [Compound 7-8] | < 50
2 | Cc1ccc(NC(=O)[C@H](CCN)NC(=O)[C@@H]2Cc3ccccc3CN2C(=O)CCC(=O)c2ccccc2)cc1Cl [Compound 2-16] | < 50
3 | Cc1cc(NC(=O)[C@H](CCN)NC(=O)[C@@H]2Cc3ccccc3CN2C(=O)CCC(=O)N2CCN(C)C(=O)C2)ccc1Cl [Compound 12-37] | 50 to 250
4 | NCC[C@H](NC(=O)[C@@H]1Cc2ccccc2CN1C(=O)CCC(=O)c1ccccc1)C(=O)Nc1ccc2cccnc2c1 [Compound 2-45] | 250 to 500
5 | Cc1cc(NC(=O)[C@H](CCCCN)NC(=O)[C@@H]2Cc3ccccc3CN2C(=O)CCC(=O)c2ccc(F)c(F)c2)ccc1Cl [Compound 7-4] | 250 to 500
6 | NCCCC[C@H](NC(=O)[C@@H]1Cc2ccccc2CN1C(=O)CCC(=O)c1ccccc1)C(=O)Nc1ccc(Cl)cc1 [Compound 1-2] | 250 to 500
7 | NCC[C@H](NC(=O)[C@@H]1Cc2ccccc2CN1C(=O)CCC(=O)c1ccccc1)C(=O)Nc1cc(Cl)cc(Cl)c1 [Compound 2-17] | 50 to 250
8 | Cc1cc(NC(=O)[C@H](CCNC(=N)N)NC(=O)[C@@H]2Cc3ccccc3CN2C(=O)CCC(=O)c2ccccc2)ccc1Cl [Compound 3-2] | < 50
9 | CC1(C)Cc2ccc(NC(=O)[C@H](CCN)NC(=O)[C@@H]3Cc4ccccc4CN3C(=O)CCC(=O)c3ccccc3)cc2C1 [Compound 2-75] | 50 to 250
10 | Cc1cc(NC(=O)[C@H](CCN)NC(=O)[C@@H]2Cc3ccccc3CN2C(=O)CCC(=O)N2CC[C@H](N(C)C)C2)ccc1Cl [Compound 12-49] | < 50
11 | Cc1cc(NC(=O)[C@H](CCN)NC(=O)[C@@H]2Cc3ccccc3CN2C(=O)CCC(=O)N(C)c2ccccc2)ccc1Cl [Compound 12-124] | 250 to 500
12 | NCC[C@H](NC(=O)[C@@H]1Cc2ccccc2CN1C(=O)CCC(=O)c1ccccc1)C(=O)Nc1cc(Cl)ccc1C(F)(F)F [Compound 14-14] | 50 to 250
13 | CCc1ccc(NC(=O)[C@H](CCN)NC(=O)[C@@H]2Cc3ccccc3CN2C(=O)CCC(=O)c2ccccc2)c(F)c1 [Compound 2-56] | 250 to 500
14 | CC1(C)CCCN(C(=O)CCC(=O)N2Cc3ccccc3C[C@H]2C(=O)N[C@@H](CCN)C(=O)Nc2ccc3c(c2)CCC3)C1 [Compound 10-7] | < 50
15 | [2H]C([2H])([2H])N1CCN(C(=O)CCC(=O)N2Cc3ccccc3C[C@H]2C(=O)N[C@@H](CCN)C(=O)Nc2ccc(Cl)c(C)c2)CC1 [Compound 12-118] | < 50
16 | Cc1c(Cl)ccc(NC(=O)[C@H](CCN)NC(=O)[C@@H]2Cc3ccccc3CN2C(=O)CCC(=O)c2ccccc2)c1Cl [Compound 14-3] | < 50
17 | NCCCC[C@H](NC(=O)[C@@H]1Cc2ccccc2CN1C(=O)CCC(=O)c1ccccc1)C(=O)Nc1cccc(C(F)(F)F)c1 [Compound 1-13] | 50 to 250
18 | Cc1cc(NC(=O)[C@H](CCN)NC(=O)[C@@H]2Cc3ccccc3CN2C(=O)CCC(=O)N2CCNCC2)ccc1Cl [Compound 12-115] | > 500
19 | Cc1cc(NC(=O)[C@H](CCN)NC(=O)[C@@H]2Cc3ccccc3CN2C(=O)CCC(=O)N2CCC(F)(F)CC2)ccc1Cl [Compound 12-4] | < 50
20 | Cc1cc(NC(=O)[C@H](CCN)NC(=O)[C@@H]2Cc3ccccc3CN2C(=O)CCC(=O)N2CCCC(O)C2)ccc1Cl (stereo partly drawn) [Compound 12-62] | < 50
21 | Cc1cc(NC(=O)C2(NC(=O)[C@@H]3Cc4ccccc4CN3C(=O)CCC(=O)c3ccccc3)CCNCC2)c(Cl)cc1Cl [Compound 11-6] | < 50
22 | Cc1cc(NC(=O)C(NC(=O)[C@@H]2Cc3ccccc3CN2C(=O)CCC(=O)c2ccccc2)C2CCN(C)CC2)ccc1Cl (mixture of isomers) [Compound 6-5] | 50 to 250
23 | Cc1cc(NC(=O)[C@H](CCN)NC(=O)[C@@H]2Cc3ccccc3CN2C(=O)CCC(=O)NCC2CCCC2)ccc1Cl [Compound 12-10] | 50 to 250
24 | NCC[C@H](NC(=O)[C@@H]1Cc2ccccc2CN1C(=O)CCC(=O)N1CCC[C@@H]1c1ccccc1)C(=O)Nc1ccc(Cl)c(Cl)c1F [Compound 12-148] | 250 to 500
25 | CCc1ccc(NC(=O)[C@H](CCCCN)NC(=O)[C@@H]2Cc3ccccc3CN2C(=O)CCC(=O)c2ccccc2)cc1CC [Compound 1-16] | 50 to 250
26 | Cc1cc(NC(=O)[C@H](CCN)NC(=O)[C@@H]2Cc3ccccc3CN2C(=O)CCC(=O)N2CCCC3(CCC3)C2)ccc1Cl [Compound 12-78] | < 50
27 | Cc1c(Cl)ccc(NC(=O)C2(NC(=O)[C@@H]3Cc4ccccc4CN3C(=O)CCC(=O)c3ccccc3)CCNCC2)c1C [Compound 11-4] | 50 to 250
28 | Cc1cc(NC(=O)[C@H](CCN)NC(=O)[C@@H]2Cc3ccccc3CN2C(=O)CCC(=O)N2CCCC23CCC3)cc(C)c1Cl [Compound 10-10] | < 50

Now from value to molecule:

Row | EC50 [nM] | Compound
29 | < 50 | NCC[C@H](NC(=O)[C@@H]1Cc2ccccc2CN1C(=O)CCC(=O)N1CCCCC1C1CCC1)C(=O)Nc1ccc(Cl)c(Cl)c1F (stereo partly drawn) [Compound 15-22]
30 | < 50 | CC(C)C1CCCN1C(=O)CCC(=O)N1Cc2ccccc2C[C@H]1C(=O)N[C@@H](CCN)C(=O)Nc1ccc(Cl)c(Cl)c1F (stereo partly drawn) [Compound 15-10]
31 | 50 to 250 | CC(C)C1CCCCN1C(=O)CCC(=O)N1Cc2ccccc2C[C@H]1C(=O)N[C@@H](CCN)C(=O)Nc1ccc(Cl)c(Cl)c1F (stereo partly drawn) [Compound 15-21]
32 | < 50 | NCC[C@H](NC(=O)[C@@H]1Cc2ccc(F)cc2CN1C(=O)CCC(=O)N1CCCC2(CCC2)C1)C(=O)Nc1ccc(Cl)c(Cl)c1F [Compound 15-58]
33 | < 50 | Cc1cc(NC(=O)[C@H](CCNC(=O)CN)NC(=O)[C@@H]2Cc3ccccc3CN2C(=O)CCC(=O)N2CCCCC2)ccc1Cl [Compound 31-1, (S)—N—((S)-4-(2-aminoacetamido)-1-((4-chloro-3-methylphenyl)amino)-1-oxobutan-2-yl)-2-(4-oxo-4-(piperidin-1-yl)butanoyl)-1,2,3,4-tetrahydroisoquinoline-3-carboxamide]
34 | 50 to 250 | CN(C(=O)CCC(=O)N1Cc2ccccc2C[C@H]1C(=O)N[C@@H](CCN)C(=O)Nc1ccc(Cl)c(Cl)c1F)C(C)(C)C [Compound 15-53]
35 | < 50 | N#Cc1c(NC(=O)[C@H](CCN)NC(=O)[C@@H]2Cc3ccccc3CN2C(=O)CCC(=O)c2ccccc2)ccc2c1CCC2 [Compound 35-1, (S)—N—((S)-4-amino-1-((4-cyano-2,3-dihydro-1H-inden-5-yl)amino)-1-oxobutan-2-yl)-2-(4-oxo-4-phenylbutanoyl)-1,2,3,4-tetrahydroisoquinoline-3-carboxamide]
36 | < 50 | CC1CN(C(=O)CCC(=O)N2Cc3ccccc3C[C@H]2C(=O)N[C@@H](CCN)C(=O)Nc2ccc(Cl)c(Cl)c2F)CC1C (stereo partly drawn) [Compound 15-29]
37 | < 50 | NCC[C@H](NC(=O)[C@@H]1Cc2ccccc2CN1C(=O)CCC(=O)N1CCCCC1C(F)F)C(=O)Nc1ccc(Cl)c(Cl)c1F (stereo partly drawn) [Compound 15-56]
38 | < 50 | CC1(C)COCCN1C(=O)CCC(=O)N1Cc2ccccc2C[C@H]1C(=O)N[C@@H](CCN)C(=O)Nc1ccc(Cl)c(Cl)c1F [Compound 15-11]
39 | 50 to 250 | CS(=O)(=O)Oc1ccc2c(c1)CN(C(=O)CCC(=O)c1ccccc1)[C@H](C(=O)N[C@@H](CCN)C(=O)Nc1ccc(Cl)c(Cl)c1F)C2 [Compound 29-1, (S)-3-(((S)-4-amino-1-((3,4-dichloro-2-fluorophenyl)amino)-1-oxobutan-2-yl)carbamoyl)-2-(4-oxo-4-phenylbutanoyl)-1,2,3,4-tetrahydroisoquinolin-7-yl methanesulfonate]
